One assay concerns the target T1, SIRT1 (Homo sapiens, UniProt Q96EB6).
T1 sequence (Q96EB6 1-747): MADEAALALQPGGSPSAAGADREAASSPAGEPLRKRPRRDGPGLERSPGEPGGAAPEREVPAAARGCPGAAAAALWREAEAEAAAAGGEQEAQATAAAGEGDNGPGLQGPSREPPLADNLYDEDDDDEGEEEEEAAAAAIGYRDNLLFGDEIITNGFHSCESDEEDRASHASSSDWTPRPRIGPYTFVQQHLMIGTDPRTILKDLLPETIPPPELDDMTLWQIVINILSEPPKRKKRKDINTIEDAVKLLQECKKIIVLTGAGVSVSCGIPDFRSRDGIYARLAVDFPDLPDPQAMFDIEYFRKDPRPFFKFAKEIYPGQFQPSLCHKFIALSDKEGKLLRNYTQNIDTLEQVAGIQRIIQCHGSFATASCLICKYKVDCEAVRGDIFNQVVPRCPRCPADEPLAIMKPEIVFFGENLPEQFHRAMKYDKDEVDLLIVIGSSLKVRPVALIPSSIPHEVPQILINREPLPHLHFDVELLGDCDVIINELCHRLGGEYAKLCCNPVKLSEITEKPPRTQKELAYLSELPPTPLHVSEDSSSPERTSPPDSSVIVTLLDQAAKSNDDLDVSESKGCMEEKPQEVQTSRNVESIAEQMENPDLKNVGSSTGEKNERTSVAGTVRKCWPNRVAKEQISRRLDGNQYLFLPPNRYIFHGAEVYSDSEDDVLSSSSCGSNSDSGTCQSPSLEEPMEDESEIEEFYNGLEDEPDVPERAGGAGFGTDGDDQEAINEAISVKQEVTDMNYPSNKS
Kind of assay: SIRT1 inhibition, Fluor de Lys fluorimetric deacetylase assay (in vitro). It counts as biochemical. The conditions noted are these: read-out: IC50 for SIRT1 (converted).

In assay [1] the target is T2, Human recombinant deacetylase sirtuin SIRT2 (Homo sapiens, UniProt Q8IXJ6).
T2 construct: host or cells: E. coli
T2 sequence (Q8IXJ6 1-389): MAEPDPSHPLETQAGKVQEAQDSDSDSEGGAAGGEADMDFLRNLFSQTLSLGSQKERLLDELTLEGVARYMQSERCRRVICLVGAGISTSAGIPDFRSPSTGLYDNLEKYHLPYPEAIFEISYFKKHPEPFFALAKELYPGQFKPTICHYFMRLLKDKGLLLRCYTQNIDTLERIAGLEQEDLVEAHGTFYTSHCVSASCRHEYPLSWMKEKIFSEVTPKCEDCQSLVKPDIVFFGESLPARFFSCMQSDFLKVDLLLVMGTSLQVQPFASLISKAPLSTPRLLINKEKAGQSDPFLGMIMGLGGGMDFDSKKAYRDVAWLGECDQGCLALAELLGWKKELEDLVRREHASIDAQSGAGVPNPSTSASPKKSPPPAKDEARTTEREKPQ
Briefly: SIRT2 inhibition, Fluor de Lys fluorimetric deacetylase assay (in vitro). It counts as biochemical. The conditions noted are these: read-out: IC50 for SIRT2 (converted). Here is the method:
(§1) Human recombinant deacetylase sirtuin SIRT2 expressed in E. coli was used. Test compound (1, 10, 100 and 1000 μg/ml conc.) and/or vehicle was pre-incubated with 2 μg/ml enzyme in Tris-HCl buffer pH 8.0 for 15 minutes at 37° C. The reaction is initiated by addition of 25 μM Fluor de Lys-SIRT1 and 150 μM NAD for another 120 minute incubation period and is terminated by further addition of Fluor de Lys Developer. Determination of the amount of de-acetate Fluor de Lys formed is read spectrofluorimetrically with excitation at 360 nm and emission at 465 nm. The concentration-response (% inhibition) curve was plotted and IC50 was calculated.
as §1, with “37 °C.” for “37° C.”

Assay [2] deals with 3-NP induced HD in rats. Kind of assay: 3-NP induced HD in rats: body weight. Type of assay: in vivo, Wistar rats. The conditions noted are these: for % difference of body weights: 30 mg/kg p.o. daily complexed with cyclodextrin + 3-NPA 20 mg/kg/day i.p., n=6. The procedure:
(§2) 3-NP (20 mg/kg i.p., daily in 2 divided doses) was administered to all the Wistar rats of weight range 250-300 g. in two divided doses at 12 hr interval for 9-11 days until disease is induced (acutely ill). It took 12 days to completely induce the disease symptoms. 3-NP was diluted with water and the pH will be adjusted upto 7.4 with NaOH. It was administered intraperitoneally (i.p.) at a dose of 10 mg/kg every 12 hrs (8:00 am and 8:00 pm) for 12 days (total daily dose 20 mg/kg). The observations were done on day 0, 7, 9, 11 and 13. The test compound was administered for the same period p.o. (per oral) one hour before 3-NP injection (at 7:00 AM daily) at dose of 30 mg/kg, p.o. The experimental groups were as follows: 1) Healthy Control: No treatment 2) HD control (3-NP+cyclodextrin) 3) TEST COMPOUND (30 mg/kg, p.o. daily complexed with cyclodextrin) treated.

Assay [3] has as its system 3-NP induced HD in rats. Briefly: 3-NP induced HD in rats: neurological behavioral grading. Type of assay: in vivo, Wistar rats. The conditions noted are these: for neurological behavioral changes (neurological problems score, grades 0-5) / neurological score, % change from cyclo + 3-NPA treatment: 30 mg/kg p.o. + 3-NPA. Here is the method: as §2
Behavioral changes were recorded daily, and immediately before sacrifice, graded according to the neurological scale described. A total of 6 grades included: • Grade 0: normal behavior; • Grade 1: general slowness in movement due to mild hind-limb impairment; • Grade 2: prominent gait abnormality with poor coordination; • Grade 3: nearly complete hind-limb paralysis; • Grade 4: incapability to move due to four-limb impairment; and • Grade 5: recumbence.

Assay [4] has as its system 3-NP induced HD in rats. Kind of assay: 3-NP induced HD in rats: squares crossed in open field test. It counts as in vivo, Wistar rats. The following applies: 30 mg/kg p.o. + 3-NPA. The procedure: as §2
In assay [5] the test system is 3-NP induced HD in rats. Briefly: 3-NP induced HD in rats: brain wet weight. It counts as in vivo, Wistar rats. The conditions noted are these: Day 13, 30 mg/kg p.o. + 3-NPA. The procedure:
as §2
On day 13, the brains of the rats were dissected out and cleaned. The wet weight of the brains were recorded for each rat. The results are also graphically represented in FIG. 3
On day 13, the brains of the rats were dissected out and cleaned. The wet weight of the brains were recorded for each rat.

Setting [6] is: test conc. 1-1000 μg/ml, pH 8.0, 37° C.

Like-named read-outs stand apart in the source and are kept apart here.

In general, IC50 refers to the concentration that inhibits the measured activity by half.

With `COc1cc(/C=C/c2ccc(O)cc2)cc(OC)c1` [Test compound, pterostilbene], the IC50 at SIRT1 (conversion of the μg/ml value) was 47 µM; on SIRT1 (setting [6]), 47.2 µM; in assay [1] (conversion of the μg/ml value) it was 45 µM; in assay [1] (setting [6]), 45.6 µM. Moreover, the “% difference of body weights” value is recorded as 1.90 ± 3.72% in the assay with 3-NP induced HD in rats [2] (Day 7), −0.82 ± 3.77% in the assay with 3-NP induced HD in rats [2] (Day 9), −2.53 ± 3.70% with 3-NP induced HD in rats [2] (Day 11) and −6.08 ± 4.10% in the assay on 3-NP induced HD in rats [2] (Day 13). For the same molecule, the “reduction in body weight” value in the assay on 3-NP induced HD in rats [2] (after 11 days, 30 mg/kg p.o. + 3-NP (3-NP alone 12.48%)) is listed as 2.53%. Moreover, the “neurological behavioral changes (neurological problems score, grades 0-5)” value in the assay on 3-NP induced HD in rats [3] (Day 7) is on record as 0; with 3-NP induced HD in rats [3] (Day 9), 1; in the assay on 3-NP induced HD in rats [3] (Day 11), 7; in the assay with 3-NP induced HD in rats [3] (Day 13 (after 12-day treatment)), 13. The “neurological score, % change from cyclo + 3-NPA treatment” value in the assay with 3-NP induced HD in rats [3] (Day 9) is recorded as −83.33%; in the assay on 3-NP induced HD in rats [3] (Day 11) it was −30%; with 3-NP induced HD in rats [3] (Day 13) it was −23.52%. Also, the “reduction of neurological problems as compared to vehicle (cyclo+3-NPA) group” value in the assay on 3-NP induced HD in rats [3] (after 12-day treatment (Day 13), 30 mg/kg p.o.) came out at 23.52%. Further, the “number of squares crossed in open field test” value with 3-NP induced HD in rats [4] (Day 7) is given as 144.17 ± 7.47; in the assay on 3-NP induced HD in rats [4] (Day 9), 125.67 ± 6.22; in the assay with 3-NP induced HD in rats [4] (Day 11), 109.00 ± 13.72; in the assay on 3-NP induced HD in rats [4] (Day 13), 77.83 ± 6.92. Besides, the “Brain weight (g)-Mean ± SEM” value with 3-NP induced HD in rats [5] is 1.605 ± 0.0659 g.

The values above are taken from US9737495B2, “Process for obtaining purified pterostilbene and methods of use thereof” (Indus Biotech Private Limited, priority 2009, dated 2017).
